These antisense oligonucleotides have a phosphorothioate backbone; sugars and methylation of C are not fully specified.
How the values were obtained:
Conditions in all cases: ASO
Agtr1a (rat) = target: Agtr1a (rat)
NSMAF = target: NSMAF
RAF1 = target: RAF1
AKT2 = target: AKT2
Note: test concentration or dose not given here.

Sequence	remaining target (mRNA or protein) (fraction of control) (NSMAF)	remaining target (mRNA or protein) (fraction of control) (RAF1)	other results
AACAGAGGGTTCAGGCAGTT	–	–	remaining target (mRNA or protein) (fraction of control) (Agtr1a (rat)): 0.29
AAGGGTATAGCTGGTGAGAAT	–	–	remaining target (mRNA or protein) (fraction of control) (Agtr1a (rat)): 0.39
AATCTCTCCTTGGAGTAG	0.61	–	–
ACACGTGTGAAGGAACACAC	–	–	remaining target (mRNA or protein) (fraction of control) (Agtr1a (rat)): 0.51
ACCATCAACATCCACTTGCG	–	≥ 1	–
ACTCGTGAAGGTGTTCAG	0.34	–	–
AGAAGAGTTAAGGGCCATTT	–	–	remaining target (mRNA or protein) (fraction of control) (Agtr1a (rat)): 0.46
AGACACGTGTGAAGGAACAC	–	–	remaining target (mRNA or protein) (fraction of control) (Agtr1a (rat)): 0.5
AGAGGGTTCAGGCAGTTGTT	–	–	remaining target (mRNA or protein) (fraction of control) (Agtr1a (rat)): 0.3
AGATCCCGGAAGGTTCCT	0.22	–	–
AGCGTCGAATTCCGAGACTC	–	–	remaining target (mRNA or protein) (fraction of control) (Agtr1a (rat)): 0.29
ATACAGTCTCTCAAAGGA	0.73	–	–
ATAGCTGGTGAGAATGATAAG	–	–	remaining target (mRNA or protein) (fraction of control) (Agtr1a (rat)): 0.44
ATCTGCCATAGAAGCATT	0.56	–	–
ATCTGTCCTCCTTGTCTC	0.47	–	–
ATGCGGTCGATGCTGAGACA	–	–	remaining target (mRNA or protein) (fraction of control) (Agtr1a (rat)): 0.75
ATTCTTAAACCTGAGGGAGC	–	≥ 1	–
CAAGAAAACCTGTATTCCTG	–	≥ 1	–
CACAGCATATACTCTGGT	0.35	–	–
CAGCACTGCAAATGGCTTCC	–	0.8	–
CAGCAGAAGAGTTAAGGGCC	–	–	remaining target (mRNA or protein) (fraction of control) (Agtr1a (rat)): 0.37
CATTTTATCTGCCCTAAG	0.56	–	–
CCCTGTATGTGCTCCATTGA	–	0.38	–
CCTCCTTCATAGGTCAGG	0.74	–	–
CCTGCTGGCTTCTCCTCCTC	–	0.92	–

Sequence	remaining target (mRNA or protein) (fraction of control) (NSMAF)	remaining target (mRNA or protein) (fraction of control) (RAF1)	other results
CCTTTCTATTTTATATGG	0.74	–	–
CGAGACTGCAAAATAGCT	0.32	–	–
CGCTCCTCCTCCCCGCGGCG	–	0.35	–
CGGGAGGCGGTCACATTCGG	–	0.25	–
CTCGCCCGCTCCTCCTCCCC	–	≥ 1	–
CTCTTCTGGAGAAAGTCC	0.67	–	–
CTGAGAGGGCTGAGATGCGG	–	≥ 1	–
CTGATTTCCAAAATCCCATG	–	0.26	–
CTGCAGCATGTAGCTCTC	0.83	–	–
CTGGCGTAGAGGTTGAAGCT	–	–	remaining target (mRNA or protein) (fraction of control) (Agtr1a (rat)): 0.41
CTGGCTTCTCCTCCTCCCCT	–	0.95	–
CTGGGCTGTTTGGTGCCTTA	–	0.8	–
CTTCAGGCTATTGACTAG	0.46	–	–
GACTCCCATACATGAACT	0.51	–	–
GAGGCACCGTGGACAGGG	–	–	remaining target (mRNA or protein) (fraction of control) (AKT2): 0.33
GAGTGTTATCTGGACCAC	0.28	–	–
GATGCAGCTTAAACAATTCT	–	0.99	–
GATGGACTGGGCGGTAAA	–	–	remaining target (mRNA or protein) (fraction of control) (AKT2): 0.22
GATGGTGATGGGCATGGCAG	–	–	remaining target (mRNA or protein) (fraction of control) (Agtr1a (rat)): 0.32
GCAGAAGAGTTAAGGGCCAT	–	–	remaining target (mRNA or protein) (fraction of control) (Agtr1a (rat)): 0.32
GCATGGCTACCTTCTCAT	0.15	–	–
GCCGAGTGCCTTGCCTGGAA	–	0.98	–
GCCGCCCCAACGTCCTGTCG	–	0.42	–
GCCGTGCCTCCTTTTGTA	0.47	–	–
GCCTTGCTGACCGCCACT	–	–	remaining target (mRNA or protein) (fraction of control) (AKT2): 0.18

Sequence	remaining target (mRNA or protein) (fraction of control) (NSMAF)	remaining target (mRNA or protein) (fraction of control) (RAF1)	other results
GCGGTCGATGCTGAGACACG	–	–	remaining target (mRNA or protein) (fraction of control) (Agtr1a (rat)): 0.35
GCTCCATTGATGCAGCTTGA	–	0.63	–
GCTCCTGGAAGACAAAATTC	–	0.82	–
GGATGCGGTCGATGCTGAGA	–	–	remaining target (mRNA or protein) (fraction of control) (Agtr1a (rat)): 0.39
GGCTCTATGCTGTTCAAA	0.39	–	–
GGCTGGGATATTGAATCT	0.72	–	–
GGGTGCCTGGTGTTCTGG	–	–	remaining target (mRNA or protein) (fraction of control) (AKT2): 0.3
GGTGAGGGAGCGGGAGGCGG	–	0.98	–
GGTGCAAAGTCAACTAGAAG	–	0.88	–
GTCTCCACAACATCTTCC	0.86	–	–
GTCTGGCGCTGCACCACTCT	–	0.35	–
GTCTTGATGTATTCACCA	–	–	remaining target (mRNA or protein) (fraction of control) (AKT2): 0.52
GTGAGCGACTTCATCCTT	–	–	remaining target (mRNA or protein) (fraction of control) (AKT2): 0.25
GTGATGGCAGCGAGCGTG	–	–	remaining target (mRNA or protein) (fraction of control) (AKT2): 0.38
GTGATTCCAGTAACTGCT	0.36	–	–
TACACTGACATCATGTTC	0.43	–	–
TATGACAGTGGCATCTCC	0.65	–	–
TCAAGGCAGGATGCTCTG	0.23	–	–
TCAGGGCTGGACTGCCTGCT	–	0.52	–
TCCCGCCTGTGACATGCATT	–	0.05	–
TCCTCCTCCCCGCGGCGGGT	–	0.95	–
TCGGTGACTGTGTGAGCG	–	–	remaining target (mRNA or protein) (fraction of control) (AKT2): 0.34
TCTGGCGCTGCACCACTCTC	–	0.25	–
TGAAGGTGAGCTGGAGCCAT	–	≥ 1	–
TGACAGACACCTCATTCA	–	–	remaining target (mRNA or protein) (fraction of control) (AKT2): 0.15

Sequence	remaining target (mRNA or protein) (fraction of control) (NSMAF)	remaining target (mRNA or protein) (fraction of control) (RAF1)	other results
TGGAAACACAGGGTACTG	0.37	–	–
TGGACAGGGCACAGTCTC	–	–	remaining target (mRNA or protein) (fraction of control) (AKT2): 0.3
TGGCATTCTGCTACGGAG	–	–	remaining target (mRNA or protein) (fraction of control) (AKT2): 0.18
TGGTCACTTTAGCCCGTG	–	–	remaining target (mRNA or protein) (fraction of control) (AKT2): ≥ 1
TGTAGCCAACAGCTGGGGCT	–	0.96	–
TGTCAGTAGTCTCTCCAG	0.25	–	–
TGTGACTAGAGAAACAAGGC	–	0.68	–
TGTGATTGTGATGGACTG	–	–	remaining target (mRNA or protein) (fraction of control) (AKT2): 0.3
TGTGGAGCCAGCCTTCTT	–	–	remaining target (mRNA or protein) (fraction of control) (AKT2): 0.28
TGTGTCCGTGATGCACAC	0.24	–	–
TGTGTGGCCCTGTATTCT	0.38	–	–
TGTTGAACATTCTATCTG	0.79	–	–
TTAAAATAACATAATTGAGG	–	0.93	–
TTAAAATCCGTTGCACCA	0.55	–	–
TTCCATCTCCTCAGTCGT	–	–	remaining target (mRNA or protein) (fraction of control) (AKT2): 0.19
TTCCATGTGCAGCTTTTC	0.34	–	–
TTCGGCGGCAGCTTCTCGCC	–	0.37	–
TTCTCCTCCTCCCCTGGCAG	–	0.8	–
TTCTCGCCCGCTCCTCCTCC	–	0.65	–
TTGAGCATGGGGAATGTGGG	–	0.63	–
TTGTCAGGTGCAATAAAAAC	–	0.88	–
TTTAGGTAGATGTCGGAA	0.52	–	–
TTTCCTTTCATGGTGACT	0.43	–	–
TTTGTGAAGTGTCTATTG	0.51	–	–

Source: the OligoGym collection
